{"source": "patent US5503852A", "about": "“Method for making self-assembling diketopiperazine drug delivery system” (Pharmaceutical Discovery Corporation, priority 1994, dated 1996)", "key": {"[1]": {"test": "Solubility in aqueous media", "assay_type": "physicochemical"}, "[2]": {"test": "Blood glucose levels after insulin", "assay_type": "in vivo, rats", "conditions": "subcutaneous; 100 μg insulin/kg", "protocol": "Porcine insulin (Sigma Chemical Co., St. Louis, Mo., Catalog No. 1 3505, specific activity: approximately 24 IU/mg) was encapsulated in 2,5-diketo- 3,6-di (4-fumarylamino)piperazine, prepared using the same method in Example 1, by dissolving the diketopiperazine in sodium bicarbonate to form a solution containing 12.5 mg diketopiperazine/ml solution. This solution was then mixed with an equal volume of citric acid solution containing porcine insulin at a concentration of 0.172 mg insulin/ml citric acid to form a white precipitate. The product was collected by centrifuge and washed once with 200 ml of deionized water, and then dried overnight in the lyophilizer. The product was assayed by HPLC and found to contain 1.6% insulin by weight.\nIn total, three male rats weighing about 200 g each were each administered a dose of 100 μg insulin/kg body weight. The dose was given subcutaneously and also as insulin encapsulated in diketopiperazine. Control animals received only the diketopiperazine and the vehicle, phosphate buffered saline. Blood glucose levels were measured on samples taken from the tail vein at various times after treatment and measured as mg of glucose/dl blood using one drop of tail blood squeezed onto a Glucofilm™ strip."}, "[3]": {"conditions": "at clinically effective concentrations; cited from earlier work"}}}
{"molecule": "O=C(O)CCC(=O)NCCCCC1NC(=O)C(CCCCNC(=O)CCC(=O)O)NC1=O", "note": "(stereo not shown) [2,5-diketo-3,6-di(4-succinylaminobutyl)piperazine]", "values": [{"measurement": "solubility", "setting": "[1]; acidic aqueous solutions", "result": "quite insoluble in acidic aqueous solutions"}, {"measurement": "solubility", "setting": "[1]; weakly alkaline aqueous solution", "result": "readily soluble in weakly alkaline aqueous solution"}]}
{"molecule": "encapsulated insulin by subcutaneous injection: Porcine insulin (Sigma Chemical Co.), given subcutaneously", "values": [{"measurement": "blood glucose level", "setting": "[2]", "result": "A marked decrease in blood glucose level"}]}
{"molecule": "NC(=O)OCC(COC(N)=O)c1ccccc1", "note": "[felbamate]", "values": [{"measurement": "solubility in aqueous media", "setting": "[3]", "result": "not soluble in aqueous media at clinically effective concentrations"}]}
